Assay [1] addresses Bone morphogenetic protein receptor type-1A (Homo sapiens, UniProt P36894). Kind of assay: Selectivity interaction (LanthaScreen Eu Kinase Binding Assay) EUB0001632a BMPR1A. To be noted: at 10 µM.
Assay [2] concerns the target T1, Inhibitor of nuclear factor kappa-B kinase subunit epsilon (Homo sapiens) (UniProt Q14164).
T1 sequence (whole entry): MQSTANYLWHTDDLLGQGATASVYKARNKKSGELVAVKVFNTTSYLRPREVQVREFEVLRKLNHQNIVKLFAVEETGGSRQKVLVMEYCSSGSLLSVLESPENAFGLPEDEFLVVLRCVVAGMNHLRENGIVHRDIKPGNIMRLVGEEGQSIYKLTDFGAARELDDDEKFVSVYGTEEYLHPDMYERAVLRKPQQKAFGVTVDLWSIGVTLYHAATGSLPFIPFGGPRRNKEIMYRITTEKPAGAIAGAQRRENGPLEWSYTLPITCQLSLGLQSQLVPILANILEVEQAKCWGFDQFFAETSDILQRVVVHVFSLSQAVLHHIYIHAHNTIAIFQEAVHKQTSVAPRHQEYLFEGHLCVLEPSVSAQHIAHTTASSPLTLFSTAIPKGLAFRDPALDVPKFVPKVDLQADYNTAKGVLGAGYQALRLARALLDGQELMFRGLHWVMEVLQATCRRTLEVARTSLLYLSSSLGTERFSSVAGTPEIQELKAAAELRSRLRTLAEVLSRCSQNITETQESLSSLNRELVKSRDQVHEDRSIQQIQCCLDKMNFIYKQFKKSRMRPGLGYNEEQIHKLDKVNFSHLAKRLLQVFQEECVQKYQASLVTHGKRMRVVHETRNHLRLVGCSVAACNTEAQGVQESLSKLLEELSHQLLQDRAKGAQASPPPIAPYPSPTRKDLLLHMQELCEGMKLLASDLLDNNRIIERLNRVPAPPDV
Kind of assay: Selectivity interaction (Ambit KINOMEscan and KiNATiv profiling in Jurkat cells) EUB0000090b IKBKE. In kind it is cell-based. The conditions noted are these: at 1 µM.

Assay [3] addresses T2, Dual specificity protein kinase TTK (Homo sapiens) (UniProt P33981).
T2 sequence (whole entry): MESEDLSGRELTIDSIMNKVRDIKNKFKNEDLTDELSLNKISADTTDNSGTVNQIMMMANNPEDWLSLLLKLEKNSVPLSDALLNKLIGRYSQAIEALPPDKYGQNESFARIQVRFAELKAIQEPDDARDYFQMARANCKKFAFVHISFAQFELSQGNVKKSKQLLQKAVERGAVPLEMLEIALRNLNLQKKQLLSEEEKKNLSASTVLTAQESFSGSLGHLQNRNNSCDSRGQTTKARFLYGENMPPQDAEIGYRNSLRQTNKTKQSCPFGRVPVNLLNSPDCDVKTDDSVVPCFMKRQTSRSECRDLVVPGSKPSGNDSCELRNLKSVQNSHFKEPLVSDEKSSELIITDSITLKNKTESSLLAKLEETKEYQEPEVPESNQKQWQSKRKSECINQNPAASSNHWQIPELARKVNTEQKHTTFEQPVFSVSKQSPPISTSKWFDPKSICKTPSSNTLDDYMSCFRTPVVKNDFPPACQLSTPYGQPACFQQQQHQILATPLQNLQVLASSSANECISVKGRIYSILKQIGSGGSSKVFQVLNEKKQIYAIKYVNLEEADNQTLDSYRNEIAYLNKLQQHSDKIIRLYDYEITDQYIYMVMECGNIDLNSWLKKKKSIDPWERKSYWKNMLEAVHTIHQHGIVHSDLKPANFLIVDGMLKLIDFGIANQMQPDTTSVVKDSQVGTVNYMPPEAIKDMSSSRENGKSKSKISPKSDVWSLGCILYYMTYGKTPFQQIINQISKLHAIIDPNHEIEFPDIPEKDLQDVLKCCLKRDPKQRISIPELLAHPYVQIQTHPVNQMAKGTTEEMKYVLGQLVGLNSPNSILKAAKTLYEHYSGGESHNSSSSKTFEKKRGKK
Kind of assay: Selectivity interaction (KinomeScan (DiscoverX)) EUB0000607a TTK. The conditions noted are these: at 10 µM.

The target of assay [4] is Tyrosine-protein kinase ABL2 (Homo sapiens, UniProt P42684). The assay can be described thus: Selectivity interaction (KinomeScan (DiscoverX)) EUB0000607a ABL2. The conditions noted are these: at 10 µM.
Sequence of Tyrosine-protein kinase ABL2 (P42684 whole entry): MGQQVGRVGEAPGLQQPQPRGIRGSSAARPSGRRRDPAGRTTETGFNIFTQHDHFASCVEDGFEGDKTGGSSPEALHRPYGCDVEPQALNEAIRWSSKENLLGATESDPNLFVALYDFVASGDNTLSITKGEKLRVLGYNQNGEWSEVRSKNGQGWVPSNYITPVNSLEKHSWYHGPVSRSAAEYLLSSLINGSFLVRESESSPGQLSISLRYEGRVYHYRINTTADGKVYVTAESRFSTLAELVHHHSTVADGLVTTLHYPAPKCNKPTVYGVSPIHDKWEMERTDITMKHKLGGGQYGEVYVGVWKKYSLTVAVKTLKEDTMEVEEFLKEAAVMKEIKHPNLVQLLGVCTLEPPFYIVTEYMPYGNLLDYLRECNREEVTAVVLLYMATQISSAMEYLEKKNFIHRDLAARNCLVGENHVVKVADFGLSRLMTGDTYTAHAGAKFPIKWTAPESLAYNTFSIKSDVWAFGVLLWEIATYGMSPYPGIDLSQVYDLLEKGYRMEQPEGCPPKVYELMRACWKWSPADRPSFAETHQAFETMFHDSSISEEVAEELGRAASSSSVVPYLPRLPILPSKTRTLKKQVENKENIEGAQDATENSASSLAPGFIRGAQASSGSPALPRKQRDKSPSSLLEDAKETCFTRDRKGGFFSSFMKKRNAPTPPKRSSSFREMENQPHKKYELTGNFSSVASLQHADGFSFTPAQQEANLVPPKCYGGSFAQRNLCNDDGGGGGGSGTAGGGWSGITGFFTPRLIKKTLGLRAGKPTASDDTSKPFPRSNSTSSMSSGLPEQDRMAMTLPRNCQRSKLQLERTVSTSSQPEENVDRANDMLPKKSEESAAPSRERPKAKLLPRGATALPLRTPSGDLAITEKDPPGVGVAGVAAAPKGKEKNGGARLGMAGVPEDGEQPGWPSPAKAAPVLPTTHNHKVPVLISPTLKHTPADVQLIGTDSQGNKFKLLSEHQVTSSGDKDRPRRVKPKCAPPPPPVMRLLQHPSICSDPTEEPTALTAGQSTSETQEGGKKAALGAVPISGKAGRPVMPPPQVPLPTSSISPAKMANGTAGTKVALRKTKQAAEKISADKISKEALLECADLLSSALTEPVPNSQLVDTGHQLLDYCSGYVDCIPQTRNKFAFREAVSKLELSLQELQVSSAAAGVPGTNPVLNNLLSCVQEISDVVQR
The target in assay [5] is T3, Serine/threonine-protein kinase NLK (Homo sapiens) (UniProt Q9UBE8).
T3 sequence (whole entry): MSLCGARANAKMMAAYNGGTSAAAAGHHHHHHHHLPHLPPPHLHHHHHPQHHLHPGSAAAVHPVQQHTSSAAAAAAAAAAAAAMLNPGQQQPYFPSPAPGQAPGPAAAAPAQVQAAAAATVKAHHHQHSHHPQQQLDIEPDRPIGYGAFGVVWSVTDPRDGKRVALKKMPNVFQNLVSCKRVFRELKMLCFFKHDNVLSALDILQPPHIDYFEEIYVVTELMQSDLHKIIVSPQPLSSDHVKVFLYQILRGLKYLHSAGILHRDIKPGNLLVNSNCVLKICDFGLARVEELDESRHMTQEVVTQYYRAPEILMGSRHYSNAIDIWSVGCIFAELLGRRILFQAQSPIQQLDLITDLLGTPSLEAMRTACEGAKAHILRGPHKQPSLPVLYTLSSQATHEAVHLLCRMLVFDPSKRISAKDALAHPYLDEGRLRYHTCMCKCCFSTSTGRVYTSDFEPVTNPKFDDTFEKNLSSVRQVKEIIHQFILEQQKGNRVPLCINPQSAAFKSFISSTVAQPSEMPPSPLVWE
The assay can be described thus: Selectivity interaction (KinomeScan (DiscoverX)) EUB0000229b NLK. To be noted: at 10 µM.

The target in assay [6] is Sodium-dependent serotonin transporter (Homo sapiens, UniProt P31645). Kind of assay: Selectivity interaction (Panel of kinases, GPCRs, ion channels and transporters (enzymatic assay)) EUB0000266bCl SLC6A4.
Sequence of Sodium-dependent serotonin transporter (P31645 whole entry, looked up): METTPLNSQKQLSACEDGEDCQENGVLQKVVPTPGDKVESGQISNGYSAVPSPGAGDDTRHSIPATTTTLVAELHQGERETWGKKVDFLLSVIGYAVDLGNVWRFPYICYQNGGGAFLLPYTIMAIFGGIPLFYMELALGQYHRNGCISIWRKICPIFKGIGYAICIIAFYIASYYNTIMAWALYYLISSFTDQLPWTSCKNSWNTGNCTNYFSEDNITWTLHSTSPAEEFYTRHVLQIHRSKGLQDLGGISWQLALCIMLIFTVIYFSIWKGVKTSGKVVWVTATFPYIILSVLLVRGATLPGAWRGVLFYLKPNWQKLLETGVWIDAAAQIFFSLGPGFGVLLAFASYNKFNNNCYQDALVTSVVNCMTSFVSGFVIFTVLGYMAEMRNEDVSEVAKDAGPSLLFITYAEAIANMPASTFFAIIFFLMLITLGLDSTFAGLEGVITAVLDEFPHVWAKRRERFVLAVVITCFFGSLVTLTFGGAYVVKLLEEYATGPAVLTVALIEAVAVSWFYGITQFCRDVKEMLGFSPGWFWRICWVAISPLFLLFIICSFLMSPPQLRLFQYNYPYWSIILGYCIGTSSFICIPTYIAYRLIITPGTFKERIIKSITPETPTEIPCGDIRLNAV
For assay [7], the target named is Mitogen-activated protein kinase 1 (Homo sapiens, UniProt P28482). The conditions noted are these: at 10 µM.
Sequence of Mitogen-activated protein kinase 1 (P28482 whole entry): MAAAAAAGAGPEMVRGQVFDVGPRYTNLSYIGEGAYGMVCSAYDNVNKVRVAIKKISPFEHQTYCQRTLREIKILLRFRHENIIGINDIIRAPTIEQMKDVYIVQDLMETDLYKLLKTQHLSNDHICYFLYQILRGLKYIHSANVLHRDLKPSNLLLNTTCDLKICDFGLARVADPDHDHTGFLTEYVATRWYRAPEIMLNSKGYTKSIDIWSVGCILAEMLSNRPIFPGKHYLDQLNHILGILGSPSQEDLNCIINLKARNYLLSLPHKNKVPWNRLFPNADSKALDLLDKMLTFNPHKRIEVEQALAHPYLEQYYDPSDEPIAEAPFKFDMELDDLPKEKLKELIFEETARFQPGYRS
Assay [8] deals with Mitogen-activated protein kinase 3 (Homo sapiens, UniProt P27361). The assay can be described thus: Selectivity interaction (ProQinase) EUB0000171b MAPK3.
Sequence of Mitogen-activated protein kinase 3 (P27361 whole entry): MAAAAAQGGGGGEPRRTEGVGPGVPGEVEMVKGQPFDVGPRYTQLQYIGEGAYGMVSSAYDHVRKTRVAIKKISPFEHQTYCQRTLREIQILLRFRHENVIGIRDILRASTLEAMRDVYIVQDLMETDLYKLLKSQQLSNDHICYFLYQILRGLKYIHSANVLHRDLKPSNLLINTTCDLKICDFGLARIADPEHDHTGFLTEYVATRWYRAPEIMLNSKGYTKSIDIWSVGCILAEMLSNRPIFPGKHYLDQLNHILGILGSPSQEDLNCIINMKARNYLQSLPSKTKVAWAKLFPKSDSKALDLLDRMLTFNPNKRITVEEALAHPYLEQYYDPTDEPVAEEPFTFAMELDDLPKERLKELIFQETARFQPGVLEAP
For assay [9], the target named is RAC-gamma serine/threonine-protein kinase (Homo sapiens, UniProt Q9Y243). Kind of assay: Selectivity interaction (KinomeScan (DiscoverX)) EUB0000595a AKT3. The conditions noted are these: at 10 µM.
Sequence of RAC-gamma serine/threonine-protein kinase (Q9Y243 whole entry): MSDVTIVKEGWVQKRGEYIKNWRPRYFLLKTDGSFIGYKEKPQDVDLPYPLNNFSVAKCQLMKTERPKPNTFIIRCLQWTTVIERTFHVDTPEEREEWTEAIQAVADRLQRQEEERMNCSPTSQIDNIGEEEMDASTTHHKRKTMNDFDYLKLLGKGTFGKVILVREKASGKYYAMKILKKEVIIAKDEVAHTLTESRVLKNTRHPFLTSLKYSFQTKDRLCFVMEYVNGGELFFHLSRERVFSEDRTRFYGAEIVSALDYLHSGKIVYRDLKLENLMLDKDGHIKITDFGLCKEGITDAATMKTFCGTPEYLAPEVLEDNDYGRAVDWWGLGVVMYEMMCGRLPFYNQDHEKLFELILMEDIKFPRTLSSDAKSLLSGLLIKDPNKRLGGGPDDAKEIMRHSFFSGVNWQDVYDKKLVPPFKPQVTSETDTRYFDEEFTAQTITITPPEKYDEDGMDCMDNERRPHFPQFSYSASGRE

Each structure is given as a SMILES string.

Sequence of Bone morphogenetic protein receptor type-1A (P36894 whole entry): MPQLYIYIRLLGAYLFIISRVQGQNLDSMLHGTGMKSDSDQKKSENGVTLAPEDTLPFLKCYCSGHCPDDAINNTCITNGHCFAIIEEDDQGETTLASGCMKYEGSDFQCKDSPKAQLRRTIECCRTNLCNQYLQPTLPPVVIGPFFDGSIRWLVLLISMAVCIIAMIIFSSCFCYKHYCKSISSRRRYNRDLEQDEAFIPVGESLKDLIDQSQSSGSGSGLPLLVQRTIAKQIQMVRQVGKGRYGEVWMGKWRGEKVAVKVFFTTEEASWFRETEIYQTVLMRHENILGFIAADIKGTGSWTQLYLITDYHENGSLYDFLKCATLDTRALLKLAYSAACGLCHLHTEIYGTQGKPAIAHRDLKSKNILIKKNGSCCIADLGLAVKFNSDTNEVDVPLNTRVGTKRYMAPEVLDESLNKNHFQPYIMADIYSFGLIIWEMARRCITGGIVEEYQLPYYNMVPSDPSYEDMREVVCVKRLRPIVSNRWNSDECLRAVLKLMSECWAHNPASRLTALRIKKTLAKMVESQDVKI

For the compound `Cn1cc(-n2cnc3c(NCc4nc5cc(Cl)c(Cl)cc5[nH]4)nc(N4CCOCC4)nc32)cn1`, the % of inhibition in [1] was -8.67%.
In the case of `CN(C)C/C=C/C(=O)Nc1ccc(C(=O)N2CCCC(Nc3ncc(Cl)c(-c4c[nH]c5ccccc45)n3)C2)cc1` (stereo not given), in [2], the % of control worked out at 100%.
As for `CNC(=O)Nc1ccc(-c2nc(N3CC4CCC(C3)O4)c3cnn(C4CCC5(CC4)OCCO5)c3n2)cc1`, the % of control was 100% in assay [3] and 84% in assay [4].
For `COc1cc(N(C)c2ccnc3ccc(C(F)(F)F)cc23)cc(OC)c1OC`, the % binding in assay [5] amounted to 64%.
With `CCn1c(-c2nc3cc(C(=O)N4CCCC(N)C4)ccc3n2C)cc2ccccc21` (stereo not given), the pXC50 in [6] was 4.7 M.
Turning to `CCN(CC)CCCCNc1ncc2cc(-c3cc(OC)cc(OC)c3)c(NC(=O)NC(C)(C)C)nc2n1`, in assay [7], the % of control came out at 100%.
On to `C=CC(=O)Nc1cccc(C(=O)Nc2ccc(Nc3cc(-c4[nH]c(SC)nc4C)ccn3)cc2)c1`, for which the figures for the % of control in [8] (at 1 µM) and in assay [8] (at 5 µM) were 101% and 99%, respectively.
For `COCC(=O)NC/C=C/c1ccc2ncnc(Nc3ccc(Oc4ccc(C)nc4)c(C)c3)c2c1` [CP-724714], the % of control in assay [9] came to 100%.

For the origin of these results see ChEMBL document CHEMBL5465560, “Selectivity Literature for EUbOPEN Chemogenomic Library” (2024).
